Source: patent publication US20100130474A1 (WYETH, priority 2008, published 2010)
Counter-ions that a name gives are not always drawn.

Columns and labels:
[1] = hygroscopicity / Dynamic Vapor Sorption (DVS) of hydrochloride salt crystal forms; assay type: physicochemical; conditions: for Hygroscopicity: hydrochloride salt of Example 4, result in words; for water uptake: at RH 50%; for water absorbed eventually: RH of 90%
Description: Differential scanning calorimetry data were collected for each solid form achieved using a DSC (TA instruments, model Q1000) under the following parameters: 50 mL/min purge gas (N2); scan range 40 to 200° C., scan rate 10° C./min. Thermogravimetric analysis data were collected using a TGA instruments (Mettler Toledo, model TGA/SDTA 851e) under the following parameters: 40 ml/min purge gas (N2); scan range 30 to 250° C., scan rate 10° C./min. X-ray data were acquired using an X-ray powder diffractometer (Bruker-axs, model D8 advance) having the following parameters: voltage 40 kV, current 40.0 mA, scan range (2) 5 to 30°, scan step size 0.01°, total scan time 33 minutes, VANTEC detector, and antiscattering slit 1 mm. FIGS. 1-7 show characterization data for hydrochloride salt forms.
Dynamic Vapor Sorption (DVS) was done at 26° C.

[2] = target: T1, rat-alpha 7-nAChR (Rattus norvegicus, UniProt Q05941); test: functional FLIPR assay, GH4C1 cells stably expressing alpha7 nAChR (intracellular calcium); assay type: cell-based; conditions: alpha7 nAChR stably expressed in GH4C1 cells; agonist concentration range 0.001 to 30 microM
T1 construct: expressed in transfected cells
Description: Rat GH4C1 cells were then transfected with the rat receptor, cloned and analyzed for functional alpha 7 nicotinic receptor expression employing a FLIPR assay to measure changes in intracellular calcium concentrations.
The FLIPR system allows the measurements of real time Ca^2+-concentration changes in living cells using a Ca^2+ sensitive fluorescence dye (such as Fluo4). This instrument enables the screening for agonists and antagonists for alpha 7 nAChR channels stably expressed in GH4C1 cells.
GH4C1 cells stably transfected with rat-alpha 7-nAChR (see above) were used. These cells are poorly adherent and therefore pretreatment of flasks and plates with poly-D-lysine was carried out. Cells are grown in 150 cm^2 T-flasks, filled with 30 ml of medium at 37° C. and 5% CO2.
EC50 and IC50 values were calculated using the IDBS XLfit4.1 software package employing a sigmoidal concentration-response (variable slope) equation:
The compounds were tested using the functional FLIPR primary screening assay employing the stable recombinant GH4C1 cell line expressing the alpha 7 nAChR. Hits identified were validated further by generation of concentration-response curves.

[3] = solubility in water of hydrochloride salt crystal forms; assay type: physicochemical; conditions: result in words

T1 sequence (Q05941 23-502): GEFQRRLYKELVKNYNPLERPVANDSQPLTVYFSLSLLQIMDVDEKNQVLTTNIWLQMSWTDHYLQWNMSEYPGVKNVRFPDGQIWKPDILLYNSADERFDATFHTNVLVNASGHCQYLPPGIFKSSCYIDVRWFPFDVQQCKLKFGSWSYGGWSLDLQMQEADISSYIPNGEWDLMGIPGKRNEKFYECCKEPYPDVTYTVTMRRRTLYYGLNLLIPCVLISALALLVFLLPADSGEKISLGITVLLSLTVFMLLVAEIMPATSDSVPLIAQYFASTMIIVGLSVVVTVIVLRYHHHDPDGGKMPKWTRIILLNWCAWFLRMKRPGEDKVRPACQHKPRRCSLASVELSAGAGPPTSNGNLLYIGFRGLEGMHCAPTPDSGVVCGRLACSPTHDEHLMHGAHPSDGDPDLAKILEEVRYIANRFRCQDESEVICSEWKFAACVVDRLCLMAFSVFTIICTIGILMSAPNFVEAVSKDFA

For `COc1ccc(-c2cc(NC(=O)CCCCN3CCCN(C(C)=O)CC3)[nH]n2)cc1` (as salt: hydrochloric acid salt) [5-(4-Acetyl-[1,4]diazepan-1-yl)-pentanoic acid [5-(4-methoxy-phenyl)-2H-pyrazol-3-yl]-amide], the melting point was 185 °C.

`COc1ccc(-c2cc(NC(=O)CCCCN3CCCN(C(C)=O)CC3)[nH]n2)cc1` (as salt: hydrochloride) [Example 4, 5-(4-Acetyl-[1,4]diazepan-1-yl)-pentanoic acid [5-(4-methoxy-phenyl)-2H-pyrazol-3-yl]-amide] gave a melting point of 132 to 133 °C.

For `COc1ccc(-c2cc(NC(=O)CCCCN3CCCN(C(C)=O)CC3)n[nH]2)cc1.Cl` [5-(4-acetyl-[1,4]diazepan-1-yl)-pentanoic acid [5-(4-methoxy-phenyl)-1H-pyrazol-3-yl]-amide hydrochloride], the Hygroscopicity [1] was “extreme hygroscopicity”.

With `COc1ccc(-c2cc(NC(=O)CCCCN3CCCN(C(C)=O)CC3)[nH]n2)cc1` [Crystal Form III, 5-(4-Acetyl-[1,4]diazepan-1-yl)-pentanoic acid [5-(4-methoxy-phenyl)-2H-pyrazol-3-yl]-amide] the water uptake [1] was “(10% water” and the Hygroscopicity [1] was “Hygroscopic”.

With `COc1ccc(-c2cc(NC(=O)CCCCN3CCCN(C(C)=O)CC3)[nH]n2)cc1` [Crystal Form V, 5-(4-Acetyl-[1,4]diazepan-1-yl)-pentanoic acid [5-(4-methoxy-phenyl)-2H-pyrazol-3-yl]-amide] the water uptake [1] was “(7% at RH” and the Hygroscopicity [1] was “Hygroscopic”.

For `C[N+]1(C)CCN(c2ccccc2)CC1` [DMPP], the EC50 [2] was 980 ± 470 nM.

With `COc1ccc(-c2cc(NC(=O)CCCCN3CCCN(C(C)=O)CC3)[nH]n2)cc1` [Form I, 5-(4-acetyl-1,4-diazepan-1-yl)-N-(5-(4-methoxyphenyl)-1H-pyrazol-3-yl)pentanamide] the “relative humidity at which the form picks up moisture” value ([1]; DVS at 26° C.) was “about 50%”, the water absorbed eventually ([1]; DVS at 26° C.) was “up to 2%” and the moisture gain ([1]; at 70-100% RH, lost without significant hysteresis on decreasing RH) was “at least 12%”. For the same molecule, the moisture gain ([1]; equilibrated at RH less than or equal to 70%) was “about 0.5%”, the Hygroscopicity [1] was “relatively non-hygroscopic” and the solubility in water [3] was “considerably soluble”.

In the case of `COc1ccc(-c2cc(NC(=O)CCCCN3CCCN(C(C)=O)CC3)[nH]n2)cc1` [Form II, 5-(4-acetyl-1,4-diazepan-1-yl)-N-(5-(4-methoxyphenyl)-1H-pyrazol-3-yl)pentanamide], the “relative humidity at which the form picks up moisture” value ([1]; DVS at 26° C.) is reported as “about 20%”, the “water held at low RH” value ([1]; RH 0%, DVS at 26° C.) is reported as 2% and the water absorbed eventually ([1]; DVS at 26° C.) is reported as “up to 7%”. The Hygroscopicity [1] was “non-hygroscopic” and the solubility in water [3] was “considerably soluble”.
